What was measured:
[1] = target: Protein kinase C gamma type (Homo sapiens, UniProt P05129); test: Inhibition of Protein kinase C gamma
[2] = target: Protein kinase C delta type (Homo sapiens, UniProt Q05655); test: Inhibition of Protein kinase C delta
[3] = target: T1, Protein kinase C beta type (Homo sapiens, UniProt P05771); test: Inhibition of Protein kinase C beta 1
[4] = target: Protein kinase C alpha type (Homo sapiens, UniProt P17252); test: Inhibition of Protein kinase C alpha
[5] = target: T1, Protein kinase C beta type; test: Inhibition of Protein kinase C beta 2
[6] = target: T2, Protein kinase C epsilon type (Homo sapiens, UniProt Q02156); test: Inhibition of Protein kinase C epsilon
T2 sequence (Q02156 whole entry): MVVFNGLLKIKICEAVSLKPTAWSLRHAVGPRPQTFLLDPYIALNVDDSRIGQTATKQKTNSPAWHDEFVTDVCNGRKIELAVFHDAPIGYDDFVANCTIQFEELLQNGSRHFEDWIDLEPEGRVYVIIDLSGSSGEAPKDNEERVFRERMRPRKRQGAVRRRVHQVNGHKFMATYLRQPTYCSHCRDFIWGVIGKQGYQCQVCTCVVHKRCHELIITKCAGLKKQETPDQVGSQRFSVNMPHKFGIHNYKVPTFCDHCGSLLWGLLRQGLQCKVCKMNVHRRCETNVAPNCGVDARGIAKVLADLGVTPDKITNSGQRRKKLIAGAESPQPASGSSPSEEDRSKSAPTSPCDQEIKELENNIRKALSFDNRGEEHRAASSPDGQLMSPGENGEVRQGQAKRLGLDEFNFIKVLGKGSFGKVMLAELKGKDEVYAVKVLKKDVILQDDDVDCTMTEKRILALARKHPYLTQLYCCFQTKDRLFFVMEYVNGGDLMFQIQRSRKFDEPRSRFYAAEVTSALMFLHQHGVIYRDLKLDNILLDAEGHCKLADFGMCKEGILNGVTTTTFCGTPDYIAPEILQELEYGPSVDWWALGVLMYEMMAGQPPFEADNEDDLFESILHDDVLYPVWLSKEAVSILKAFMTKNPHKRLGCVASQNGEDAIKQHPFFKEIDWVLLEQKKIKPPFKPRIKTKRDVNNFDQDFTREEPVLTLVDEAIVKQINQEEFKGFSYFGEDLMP

[7] = target: Protein kinase C eta type (Homo sapiens, UniProt P24723); test: Inhibition of Protein kinase C eta
Chain of Protein kinase C eta type (P24723 whole entry): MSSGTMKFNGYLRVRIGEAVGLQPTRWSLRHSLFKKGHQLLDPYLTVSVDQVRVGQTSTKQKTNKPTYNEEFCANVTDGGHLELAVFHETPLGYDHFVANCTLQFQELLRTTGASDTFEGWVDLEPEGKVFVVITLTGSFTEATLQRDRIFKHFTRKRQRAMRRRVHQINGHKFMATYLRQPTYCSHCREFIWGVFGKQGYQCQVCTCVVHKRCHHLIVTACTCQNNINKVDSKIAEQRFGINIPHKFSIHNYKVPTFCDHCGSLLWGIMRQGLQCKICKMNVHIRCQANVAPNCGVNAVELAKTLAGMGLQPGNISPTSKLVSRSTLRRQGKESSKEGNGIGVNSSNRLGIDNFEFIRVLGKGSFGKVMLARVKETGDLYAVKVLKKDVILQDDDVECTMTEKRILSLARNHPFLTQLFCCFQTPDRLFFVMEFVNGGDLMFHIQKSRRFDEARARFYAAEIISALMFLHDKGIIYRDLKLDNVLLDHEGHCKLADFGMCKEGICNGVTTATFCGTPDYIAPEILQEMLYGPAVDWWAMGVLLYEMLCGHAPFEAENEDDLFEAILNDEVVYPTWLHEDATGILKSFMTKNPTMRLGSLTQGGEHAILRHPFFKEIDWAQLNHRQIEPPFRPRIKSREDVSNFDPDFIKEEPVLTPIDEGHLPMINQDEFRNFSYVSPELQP

[8] = target: T3, Protein kinase C zeta type (Homo sapiens, UniProt Q05513); test: Inhibition of Protein kinase C zeta
T3 sequence (Q05513 whole entry): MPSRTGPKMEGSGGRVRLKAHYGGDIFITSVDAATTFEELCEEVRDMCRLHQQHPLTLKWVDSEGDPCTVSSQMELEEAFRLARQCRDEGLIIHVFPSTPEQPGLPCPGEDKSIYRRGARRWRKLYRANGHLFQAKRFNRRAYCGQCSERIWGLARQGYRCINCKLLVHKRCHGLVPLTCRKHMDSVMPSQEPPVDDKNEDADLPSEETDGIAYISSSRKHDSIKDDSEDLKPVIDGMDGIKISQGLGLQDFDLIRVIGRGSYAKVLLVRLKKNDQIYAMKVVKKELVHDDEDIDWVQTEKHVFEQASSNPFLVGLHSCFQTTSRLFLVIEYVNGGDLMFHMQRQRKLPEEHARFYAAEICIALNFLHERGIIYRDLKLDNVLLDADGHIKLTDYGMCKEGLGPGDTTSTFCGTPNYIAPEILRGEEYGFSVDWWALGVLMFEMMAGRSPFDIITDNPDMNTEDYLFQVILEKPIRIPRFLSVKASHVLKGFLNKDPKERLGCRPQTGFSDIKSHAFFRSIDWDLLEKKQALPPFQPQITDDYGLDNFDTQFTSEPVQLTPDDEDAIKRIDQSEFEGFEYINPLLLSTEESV

[9] = Stability in human plasma 4 hr after incubation expressed as percent concentration; assay type: ADME, cell-free; details: read-out: Concentration
[10] = Stability in human plasma 2 hr after incubation expressed as percent concentration; assay type: ADME, cell-free; details: read-out: Concentration

T1 sequence (P05771 whole entry): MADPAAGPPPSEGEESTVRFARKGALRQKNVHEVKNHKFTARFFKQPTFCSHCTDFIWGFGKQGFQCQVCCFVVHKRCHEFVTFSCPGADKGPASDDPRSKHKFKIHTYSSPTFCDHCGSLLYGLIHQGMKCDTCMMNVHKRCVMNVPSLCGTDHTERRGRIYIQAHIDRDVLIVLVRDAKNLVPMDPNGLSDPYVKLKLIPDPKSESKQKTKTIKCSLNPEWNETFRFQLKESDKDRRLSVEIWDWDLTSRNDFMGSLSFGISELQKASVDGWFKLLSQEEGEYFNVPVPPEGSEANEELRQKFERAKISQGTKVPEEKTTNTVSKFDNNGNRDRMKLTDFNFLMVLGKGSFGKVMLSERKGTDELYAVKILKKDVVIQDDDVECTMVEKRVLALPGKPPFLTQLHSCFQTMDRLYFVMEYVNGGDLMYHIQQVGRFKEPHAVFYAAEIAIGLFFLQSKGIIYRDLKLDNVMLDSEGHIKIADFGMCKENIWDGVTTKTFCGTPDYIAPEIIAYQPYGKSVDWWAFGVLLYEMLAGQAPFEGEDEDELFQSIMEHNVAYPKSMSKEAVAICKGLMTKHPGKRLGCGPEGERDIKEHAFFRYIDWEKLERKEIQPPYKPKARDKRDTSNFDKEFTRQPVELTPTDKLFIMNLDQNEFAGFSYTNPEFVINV
Chain of Protein kinase C delta type (Q05655 whole entry): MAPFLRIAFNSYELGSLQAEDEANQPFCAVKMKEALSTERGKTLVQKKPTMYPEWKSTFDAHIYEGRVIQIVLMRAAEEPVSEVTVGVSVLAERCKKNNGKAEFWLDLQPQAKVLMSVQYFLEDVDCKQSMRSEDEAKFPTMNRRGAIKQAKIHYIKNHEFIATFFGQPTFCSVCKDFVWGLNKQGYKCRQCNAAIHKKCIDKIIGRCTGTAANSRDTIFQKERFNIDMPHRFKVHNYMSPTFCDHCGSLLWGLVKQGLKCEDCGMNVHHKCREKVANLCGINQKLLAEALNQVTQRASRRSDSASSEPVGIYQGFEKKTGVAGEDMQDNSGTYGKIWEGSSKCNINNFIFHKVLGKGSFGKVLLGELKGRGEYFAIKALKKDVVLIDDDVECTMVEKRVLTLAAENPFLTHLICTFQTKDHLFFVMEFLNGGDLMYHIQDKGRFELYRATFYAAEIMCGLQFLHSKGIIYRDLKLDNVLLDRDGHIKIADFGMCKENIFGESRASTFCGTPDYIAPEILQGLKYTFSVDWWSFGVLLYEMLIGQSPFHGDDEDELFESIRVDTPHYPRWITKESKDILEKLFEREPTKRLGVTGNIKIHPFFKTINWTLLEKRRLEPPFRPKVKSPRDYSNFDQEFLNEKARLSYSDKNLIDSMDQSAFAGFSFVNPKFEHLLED

SMILES | IC50 [1] [nM] | IC50 [2] [nM] | IC50 [3] [nM] | IC50 [4] [nM] | IC50 [5] [nM] | IC50 [6] [nM] | IC50 [7] [nM] | IC50 [8] [nM] | remaining at 4 h [9] [%] | remaining at 2 h [10] [%]
O=C(NC[C@@H]1CCC[C@H]1NC(=O)c1ccc(O)cc1)c1cc(O)c(C(=O)c2c(O)cccc2C(=O)O)c(O)c1 | 46000 | 330 | 17000 | 35000 | 4900 | > 50000 | 2300 | > 50000 | – | –
C[C@@]1(OC(=O)c2cc(O)c(C(=O)c3c(O)cccc3C(=O)O)c(O)c2)CCCNC[C@H]1NC(=O)c1ccc(O)cc1 | 40 | 30 | 120 | 220 | 70 | 50 | 20 | – | – | –
O=C(N[C@@H]1CCCNC[C@H]1NC(=O)c1ccc(O)cc1)c1cc(O)c(C(=O)c2c(O)cccc2C(=O)O)c(O)c1 | 420 | 220 | 630 | 3200 | 1200 | 670 | 50 | > 50000 | – | –
O=C(N[C@@H]1CNC[C@H]1OC(=O)c1cc(O)c(C(=O)c2c(O)cccc2C(=O)O)c(O)c1)c1ccc(O)cc1 | 12 | – | 10 | – | – | – | – | 6800 | 103 | 88
O=C(N[C@@H]1CNCCC[C@H]1OC(=O)c1cc(O)c(C(=O)c2c(O)cccc2C(=O)O)c(O)c1)c1ccc(O)cc1 (racemic) [BALANOL] | 30 | 23 | 30 | 67 | 30 | – | 20 | – | – | –
O=C(N[C@@H]1CNCCC[C@H]1OC(=O)c1cc(O)c(C(=O)c2c(O)cccc2C(=O)O)c(O)c1)c1ccc(O)cc1 [BALANOL] | 10 | 16 | 10 | 30 | 10 | – | 3 | 5900 | – | –

Further lines, results first:

IC50 [1] [nM] | IC50 [2] [nM] | IC50 [3] [nM] | IC50 [4] [nM] | IC50 [5] [nM] | IC50 [6] [nM] | IC50 [7] [nM] | IC50 [8] [nM] | remaining at 4 h [9] [%] | remaining at 2 h [10] [%] | SMILES
> 50000 | 42000 | > 50000 | > 50000 | > 50000 | > 50000 | 31000 | > 50000 | – | – | CN(C(=O)c1cc(O)c(C(=O)c2c(O)cccc2C(=O)O)c(O)c1)[C@H]1CCCNC[C@H]1NC(=O)c1ccc(O)cc1
1100 | 20 | 430 | 460 | 290 | 370 | 30 | > 50000 | 100 | 100 | O=C(N[C@@H]1CCC[C@H]1OCc1cc(O)c(C(=O)c2c(O)cccc2C(=O)O)c(O)c1)c1ccc(O)cc1
– | 1 | – | – | – | – | 1 | – | – | – | O=C(N[C@@H]1CCC[C@H]1OC(=O)c1cc(O)c(C(=O)c2c(O)cccc2C(=O)O)c(O)c1)c1ccc(O)cc1
330 | 12 | 220 | 920 | 330 | 80 | 3 | 9600 | 104 | 95 | O=C(N[C@@H]1CNC[C@H]1NC(=O)c1cc(O)c(C(=O)c2c(O)cccc2C(=O)O)c(O)c1)c1ccc(O)cc1
300 | 20 | 40 | 40 | 30 | 340 | 20 | > 50000 | – | – | O=C(N[C@@H]1CCC[C@H]1COC(=O)c1cc(O)c(C(=O)c2c(O)cccc2C(=O)O)c(O)c1)c1ccc(O)cc1
